Legend:
Experiment in all cases: relative viability (nuclei count vs DMSO), 5 days (fraction); higher = more cells survive
GSK126 + Tozasertib = compound: CC[C@H](C)N1C=C(C2=C(C=C(C=C21)C3=CN=C(C=C3)N4CCNCC4)C(=O)NCC5=C(C=C(NC5=O)C)C)C [GSK126] + Cc1cc(Nc2cc(N3CCN(C)CC3)nc(Sc3ccc(NC(=O)C4CC4)cc3)n2)n[nH]1 [Tozasertib] (partner 0.1 µM)
In short: (§1)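 Lung cancer cell lines in 1536-well plates got either a single drug or a fixed anchor-drug dose together with five library-drug doses (not always all listed) in √10 steps, by pin tool, on the day after seeding. Nuclei were counted after 5 days, and relative viability is the treated-to-vehicle ratio of nuclei counts. Values are medians of duplicate plates.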

MLN4924 + Decitabine = compound: NS(=O)(=O)OC[C@@H]1C[C@@H](n2ccc3c(N[C@H]4CCc5ccccc54)ncnc32)C[C@@H]1O [MLN4924] + Nc1ncn([C@H]2C[C@H](O)[C@@H](CO)O2)c(=O)n1 [Decitabine] (partner 2 µM)
In short: as §1

MLN4924 + Alpelisib = compound: NS(=O)(=O)OC[C@@H]1C[C@@H](n2ccc3c(N[C@H]4CCc5ccccc54)ncnc32)C[C@@H]1O [MLN4924] + Cc1nc(NC(=O)N2CCC[C@H]2C(N)=O)sc1-c1ccnc(C(C)(C)C(F)(F)F)c1 [Alpelisib] (partner 2 µM)
In short: as §1

MLN4924 + Palbociclib = compound: NS(=O)(=O)OC[C@@H]1C[C@@H](n2ccc3c(N[C@H]4CCc5ccccc54)ncnc32)C[C@@H]1O [MLN4924] + CC(=O)c1c(C)c2cnc(Nc3ccc(N4CCNCC4)cn3)nc2n(C2CCCC2)c1=O [Palbociclib] (partner 0.5 µM)
In short: as §1

Cell Line	relative viability (GSK126 + Tozasertib; first compound 0.08 µM)	relative viability (GSK126 + Tozasertib; first compound 0.253 µM)	relative viability (GSK126 + Tozasertib; first compound 0.8 µM)	relative viability (GSK126 + Tozasertib; first compound 2.53 µM)	relative viability (GSK126 + Tozasertib; first compound 8 µM)	relative viability (MLN4924 + Decitabine; first compound 0.04 µM)	relative viability (MLN4924 + Decitabine; first compound 0.1265 µM)	relative viability (MLN4924 + Decitabine; first compound 0.4 µM)	relative viability (MLN4924 + Decitabine; first compound 1.265 µM)	relative viability (MLN4924 + Decitabine; first compound 4 µM)	relative viability (MLN4924 + Alpelisib; first compound 0.04 µM)	relative viability (MLN4924 + Alpelisib; first compound 0.1265 µM)	relative viability (MLN4924 + Alpelisib; first compound 0.4 µM)	relative viability (MLN4924 + Alpelisib; first compound 1.265 µM)	relative viability (MLN4924 + Alpelisib; first compound 4 µM)	relative viability (MLN4924 + Palbociclib; first compound 0.04 µM)	relative viability (MLN4924 + Palbociclib; first compound 0.1265 µM)	relative viability (MLN4924 + Palbociclib; first compound 0.4 µM)	relative viability (MLN4924 + Palbociclib; first compound 1.265 µM)	relative viability (MLN4924 + Palbociclib; first compound 4 µM)
NCI-H2009	0.798	0.705	0.639	0.615	0.464	0.342	0.289	0.218	0.174	0.118	0.987	0.791	0.299	0.151	0.114	0.0712	0.0898	0.0671	0.0534	0.0501
NCI-H322M	0.501	0.51	0.49	0.472	0.499	0.707	0.65	0.62	0.469	0.491	0.783	0.786	0.713	0.259	0.321	0.56	0.656	0.504	0.389	0.395
NCI-H1648	0.386	–	0.478	0.518	0.321	0.572	0.507	0.398	0.305	0.336	–	–	–	–	–	0.256	0.231	0.371	0.259	0.302
NCI-H1792	–	–	–	–	–	0.72	0.556	0.571	0.377	0.219	0.685	0.758	0.944	0.441	0.21	0.654	0.583	0.689	0.453	0.353
NCI-H1563	–	–	–	–	–	–	–	–	–	–	1.36	1.31	0.898	0.564	0.566	–	–	–	–	–
NCI-H1650	0.42	0.455	0.394	0.356	0.3	0.371	0.388	0.252	0.175	0.193	–	–	–	–	–	0.286	0.221	0.19	0.131	0.136
NCI-H596	0.933	1.03	0.894	0.89	0.933	1.09	1.1	0.933	0.97	0.727	0.468	0.61	0.426	0.664	0.52	–	–	–	–	–
NCI-H522	0.535	0.507	0.503	0.527	0.605	0.626	0.598	0.571	0.401	0.406	–	–	–	–	–	0.835	0.693	0.741	0.348	0.37
IA-LM	–	–	–	–	–	–	–	–	–	–	0.494	0.2	0.153	0.0773	0.0621	–	–	–	–	–
NCI-H2228	0.254	0.225	0.273	0.172	0.15	–	–	–	–	–	–	0.833	0.415	0.176	0.18	0.743	0.891	0.277	0.188	0.13
NCI-H1623	0.453	0.487	0.419	0.416	0.353	–	–	–	–	–	–	–	–	–	–	–	–	–	–	–
